Assays:
[1] = cited from earlier work
[2] = system: mold fungi; conditions: pH 5.5; depending on the fungal species; cited from earlier work
[3] = system: bacteria; conditions: cited from earlier work
[4] = loss of propionic acid during baking; assay type: physicochemical; conditions: during baking and up to 24 h thereafter
Protocol: Using the method known to those skilled in the art, the loss of propionic acid was determined in order to find out how much propionic acid is present in the various intermediates (dough versus baked product). […] This may be explained by the fact that at the end of the baking time the bread crumb has a temperature of at most 98° C.-106° C. Propionic acid has a boiling point of 141° C. and is therefore retained in the bread crumb during the baking to completion and also after cooling, and therefore can effect the desired protection against mold.

[5] = system: A. niger; experiment: challenge experiment, mycelial growth on bread; assay type: cell-based
[6] = system: mold; experiment: storage study of bread, mold-free time; conditions: bread with 0.4% propionic acid added
[7] = system: P. roqueforti; experiment: challenge experiment on inoculated bread slices; assay type: cell-based; conditions: based on initial flour weight
Source text: The inoculated bread slices, already after 2-4 days, had mycelia of P. roqueforti. In order to inhibit this mold fungus growth, a concentration of greater than 0.4% w/w propionic acid (based on the initial flour weight) was required.

Question: With CCC(=O)O [propionic acid] as the compound, how does the “toxicity on oral intake” value [1] read?
Answer: not acutely toxic

Question: What about the “concentration inhibiting growth of mold fungi” value [2] of the same compound?
Answer: 0.0125-1.25%

Question: And the “concentration necessary for inhibition of bacteria” value [3]?
Answer: 1.6-6%

Question: And the “concentration of propionic acid during baking” value [4]?
Answer: remained roughly constant

Question: And the “chemical addition needed to achieve comparable preservation results” value ([5]; compared with co-fermentation giving 0.2% propionic and 0.2% acetic acid)?
Answer: at least 0.4%

Question: And the “concentration suppressing growth of A. niger up to the end of the study” value ([5]; propionic acid alone, breads, challenge experiment)?
Answer: 0.3%

Question: And the “mold-free time longer compared with propionic acid-free bread” value [6]?
Answer: 14 days

Question: What about the “concentration required to inhibit mold fungus growth” value [7] of the same compound?
Answer: greater than 0.4 % w/w
